The values that follow come from patent publication US20250195673A1 (priority 2020, published 2025).

This assay has as its target human NTSR1 (Homo sapiens, UniProt P30989).

Chain of human NTSR1 (P30989 whole entry): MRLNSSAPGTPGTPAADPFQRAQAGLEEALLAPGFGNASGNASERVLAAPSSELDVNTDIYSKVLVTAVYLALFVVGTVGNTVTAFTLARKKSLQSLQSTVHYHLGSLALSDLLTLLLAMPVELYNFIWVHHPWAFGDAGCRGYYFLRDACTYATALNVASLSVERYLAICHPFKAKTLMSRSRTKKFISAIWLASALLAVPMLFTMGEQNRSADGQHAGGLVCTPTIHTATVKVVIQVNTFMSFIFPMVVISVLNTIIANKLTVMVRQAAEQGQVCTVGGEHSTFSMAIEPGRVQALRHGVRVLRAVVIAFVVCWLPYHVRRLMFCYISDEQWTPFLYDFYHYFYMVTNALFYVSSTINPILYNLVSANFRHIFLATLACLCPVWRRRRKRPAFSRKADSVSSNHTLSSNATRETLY

As for murine transferrin [mTf], the IP1 accumulation entry is recorded as “not”.
